Measurements from patent US9878986B2, “Compounds for selective histone deacetylase inhibitors, and pharmaceutical composition comprising the same” (CHONG KUN DANG PHARMACEUTICAL CORP., priority 2013, dated 2018).
pIC50: −log10 of the molar value.

How the values were obtained:
HDAC 9 = biological target: T1, HDAC 9 (Homo sapiens, UniProt Q9UKV0); experiment: HDAC panel by Reaction Biology Corp., HDAC 9; assay type: biochemical; conditions: read-out: HDAC inhibitory activities, HDAC 9
T1 construct: Reaction Biology Corp
From the text: (§1) The inhibitory activities of Compounds 255 and 374 on all HDACs were confirmed (by Reaction Biology Corp.).

RPMI 8226 cells = experiment: Combination index for combination treatment with Velcade (MTT cell viability); assay type: cell-based
Protocol: RPMI 8226 cells were seeded in 96-well U-bottom plate at 3×10^5 cells/ml in 180 μl per well, and 20 μl of test material was added to the plate. The cells were incubated in a 37° C. humidified 5% CO2 incubator for 48 hours, and each 20 μl of 5 mg/ml 2-(4,5-dimethylthiazol-2-yl)-2,5-diphenyltetrazolium bromide (MTT) solution dissolved in PBS was added and incubated again for 4 hours. After the formation of formazan, the medium was completely removed, 200 μl of DMSO was added, and then the absorbance was measured using a microplate reader at 570 nm.
For the quantitative analysis of drug interaction between the novel urea compounds of the present invention and Velcade (BOZ) well known as a therapeutic agent for multiple myeloma, the combination index (CI) of cell fractions on cytotoxicity caused by the drugs was calculated based on the dose-response curve of single and combination treatments. For the analysis of the interaction between two drugs, the CI was measured using Compusyn software (Combosyn Inc.) according to the method of Chou and Talalay (CompuSyn by Ting-Chao Chou and Nick Martin, 2005). The CI is the dose ratio of two anticancer agents treated with the dose of two anticancers at the point representing the equivalent cytotoxic effects. CI<1, CI=1, and CI>1 are interpreted as synergism, additivity, and antagonism, respectively.

[1] = tested on: histone acetylation (HDAC1) in RPMI8226 cells; experiment: Acetylation of Histone H3 and Histone H4 in cells by Western blot; assay type: cell-based; conditions: 24 hours
Protocol: To determine the selectivity for HDAC6 in cells, the acetylation levels of Tubulin, Histone H3 and Histone H4 depending on the concentration of compounds were measured by Western blot.
RPMI8226 (1.0×10^6 cells/well) cells were seeded on six-well plates and treated with drugs (Compounds 255 and 374) at each concentration. After 24 hours, the proteins were extracted with RIPA buffer and quantified by the Bradford method. 25 μg of protein was lysed in sample buffer, electrophoresed on a 4-12% gradient gel, and then transferred to nitrocellulose membranes for 50 minutes. Then transferred protein was blocked with 5% skim milk for 1 hour. Anti-acetyl H3 (1:2,000), anti-acetyl H4 (1:5,000), anti-acetyl tubulin (1:5,000), and anti-β-actin antibody (1:10,000) were added into 5% skim milk, and the membranes were immersed in the skim milk, reacted at 4° C. for 16 hours, and then washed three times for 10 minutes each with 1×TBS-T. Then, IgG-HRP antibody (1:5,000) was added into 5% skim milk, and then the membranes were immersed in the skim milk, reacted at room temperature for 40 minutes, and then washed three times for […] each with 1×TBS-T. Then, the acetylation levels were determined with a LAS 3000 using ECL solution. […]

HDAC 7 = biological target: T2, HDAC 7 (Homo sapiens, UniProt Q8WUI4); experiment: HDAC panel by Reaction Biology Corp., HDAC 7; assay type: biochemical; conditions: read-out: HDAC inhibitory activities, HDAC 7
T2 construct: Reaction Biology Corp
T2 sequence (Q8WUI4 1-952): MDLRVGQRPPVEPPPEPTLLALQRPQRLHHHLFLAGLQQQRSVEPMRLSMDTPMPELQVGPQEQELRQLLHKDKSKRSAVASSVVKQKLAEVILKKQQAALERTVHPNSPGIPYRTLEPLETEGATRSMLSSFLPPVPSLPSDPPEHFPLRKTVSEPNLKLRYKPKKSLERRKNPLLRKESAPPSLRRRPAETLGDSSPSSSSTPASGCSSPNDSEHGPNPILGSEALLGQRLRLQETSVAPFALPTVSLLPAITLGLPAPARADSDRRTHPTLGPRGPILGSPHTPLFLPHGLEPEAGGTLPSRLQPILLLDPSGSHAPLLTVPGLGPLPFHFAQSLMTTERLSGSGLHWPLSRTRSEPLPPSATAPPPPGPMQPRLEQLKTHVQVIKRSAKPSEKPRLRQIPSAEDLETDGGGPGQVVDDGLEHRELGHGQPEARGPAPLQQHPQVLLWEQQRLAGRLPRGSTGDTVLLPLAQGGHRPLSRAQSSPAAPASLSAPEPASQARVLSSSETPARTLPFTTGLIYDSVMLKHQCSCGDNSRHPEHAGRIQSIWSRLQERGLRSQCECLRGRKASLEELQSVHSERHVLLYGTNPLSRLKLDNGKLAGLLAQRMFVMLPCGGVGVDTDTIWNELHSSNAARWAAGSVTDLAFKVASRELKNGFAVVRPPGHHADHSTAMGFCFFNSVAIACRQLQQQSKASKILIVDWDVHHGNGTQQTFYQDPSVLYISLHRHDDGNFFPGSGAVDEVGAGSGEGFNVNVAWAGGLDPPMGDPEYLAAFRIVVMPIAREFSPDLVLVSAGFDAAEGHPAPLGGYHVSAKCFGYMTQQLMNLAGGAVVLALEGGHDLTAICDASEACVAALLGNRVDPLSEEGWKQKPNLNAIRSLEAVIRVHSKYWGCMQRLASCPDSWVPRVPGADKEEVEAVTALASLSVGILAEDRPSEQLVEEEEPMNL
From the text: as §1

[2] = Compound 255 0.25 μM + BOZ (Velcade) 2.5 nM
[3] = Compound 255 0.25 μM + BOZ (Velcade) 5.0 nM
[4] = Compound 255 0.25 μM + BOZ (Velcade) 10.0 nM
[5] = Compound 255 0.5 μM + BOZ (Velcade) 2.5 nM
[6] = Compound 255 0.5 μM + BOZ (Velcade) 5.0 nM
[7] = Compound 255 0.5 μM + BOZ (Velcade) 10.0 nM
[8] = Compound 255 1.0 μM + BOZ (Velcade) 2.5 nM
[9] = Compound 255 1.0 μM + BOZ (Velcade) 5.0 nM
[10] = Compound 255 1.0 μM + BOZ (Velcade) 10.0 nM

T1 sequence (Q9UKV0 whole entry): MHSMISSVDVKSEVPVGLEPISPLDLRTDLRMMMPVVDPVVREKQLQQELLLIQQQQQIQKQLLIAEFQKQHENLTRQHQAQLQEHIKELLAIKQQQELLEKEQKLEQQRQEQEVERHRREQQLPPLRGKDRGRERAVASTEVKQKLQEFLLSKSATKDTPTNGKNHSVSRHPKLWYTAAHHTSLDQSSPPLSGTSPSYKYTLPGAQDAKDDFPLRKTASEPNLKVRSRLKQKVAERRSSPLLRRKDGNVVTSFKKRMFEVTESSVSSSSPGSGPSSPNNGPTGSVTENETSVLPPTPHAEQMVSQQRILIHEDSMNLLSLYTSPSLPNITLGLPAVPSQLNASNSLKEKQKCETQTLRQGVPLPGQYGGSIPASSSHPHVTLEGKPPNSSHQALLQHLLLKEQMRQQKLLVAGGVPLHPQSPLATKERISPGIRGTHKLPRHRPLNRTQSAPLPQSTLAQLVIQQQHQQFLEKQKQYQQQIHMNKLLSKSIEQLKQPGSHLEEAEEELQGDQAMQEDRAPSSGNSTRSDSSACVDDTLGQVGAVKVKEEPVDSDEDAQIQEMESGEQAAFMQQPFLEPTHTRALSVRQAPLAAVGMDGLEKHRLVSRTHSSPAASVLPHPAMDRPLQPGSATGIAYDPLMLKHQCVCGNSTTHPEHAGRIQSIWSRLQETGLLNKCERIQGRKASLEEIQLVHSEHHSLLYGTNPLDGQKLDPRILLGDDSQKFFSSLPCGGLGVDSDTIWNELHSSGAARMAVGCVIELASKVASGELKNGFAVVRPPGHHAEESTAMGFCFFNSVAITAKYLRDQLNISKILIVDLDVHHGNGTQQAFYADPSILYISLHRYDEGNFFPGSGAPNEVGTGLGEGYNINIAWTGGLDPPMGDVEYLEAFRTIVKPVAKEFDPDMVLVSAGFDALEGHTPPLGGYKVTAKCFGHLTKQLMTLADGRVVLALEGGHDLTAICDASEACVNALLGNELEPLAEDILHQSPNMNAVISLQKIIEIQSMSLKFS

O=C(NO)c1ccc(CN(C(=O)N2CCOCC2)c2cccc(Br)c2)cc1 [Compound 255, N-(3-bromophenyl)-N-(4-(hydroxycarbamoyl)benzyl)morpholine-4-carboxamide]
pIC50 (HDAC 9): 5.45
CI (1) (RPMI 8226 cells; [2]): 1.182
CI (2) (RPMI 8226 cells; [2]): 1.034
CI (3) (RPMI 8226 cells; [2]): 1.068
CI (1) (RPMI 8226 cells; [3]): 0.560
CI (2) (RPMI 8226 cells; [3]): 0.710
CI (3) (RPMI 8226 cells; [3]): 0.737
CI (1) (RPMI 8226 cells; [4]): 0.482
CI (2) (RPMI 8226 cells; [4]): 0.309
CI (3) (RPMI 8226 cells; [4]): 0.417
CI (1) (RPMI 8226 cells; [5]): 1.120
CI (2) (RPMI 8226 cells; [5]): 1.115
CI (3) (RPMI 8226 cells; [5]): 1.087
CI (1) (RPMI 8226 cells; [6]): 0.751
CI (2) (RPMI 8226 cells; [6]): 0.789
CI (3) (RPMI 8226 cells; [6]): 0.727
CI (1) (RPMI 8226 cells; [7]): 0.491
CI (2) (RPMI 8226 cells; [7]): 0.529
CI (3) (RPMI 8226 cells; [7]): 0.428
CI (1) (RPMI 8226 cells; [8]): 0.940
CI (2) (RPMI 8226 cells; [8]): 1.146
CI (3) (RPMI 8226 cells; [8]): 0.998
CI (1) (RPMI 8226 cells; [9]): 0.469
CI (2) (RPMI 8226 cells; [9]): 0.679
CI (3) (RPMI 8226 cells; [9]): 0.475
CI (1) (RPMI 8226 cells; [10]): 0.416
CI (2) (RPMI 8226 cells; [10]): 0.518
CI (3) (RPMI 8226 cells; [10]): 0.417
combination effect with Velcade (BOZ) (RPMI 8226 cells; judged by the combination index): combination effect is excellent
concentration at which histone acetylation (HDAC1) was expressed [1]: 1 µM
pIC50 (HDAC 7): 5.82

O=C(NO)c1ccc(CN(C(=O)N2CCOCC2)c2cccc(C(F)(F)F)c2)cc1 [Compound 374, N-(4-(hydroxycarbamoyl)benzyl)-N-(3-(trifluoromethyl)phenyl)morpholine-4-carboxamide]
pIC50 (HDAC 9): 4.99
concentration at which histone acetylation (HDAC1) was expressed [1]: 10 µM
pIC50 (HDAC 7): 5.28
